According to PubChem BioAssay (NCI):
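Growth conditions: 96-well plates. Treatment: test compound, 48 hours, 5 concentrations. Analysis: linear interpolation between bracketing concentrations; unreached endpoints set to highest concentration. TGI marks complete inhibition of growth.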

Key:
Assay in all cases: DTP human tumour cell line panel, 48 h
SR leukemia = system: SR leukemia
HCT-15 colon = system: HCT-15 colon
HL-60(TB) leukemia = system: HL-60(TB) leukemia
CCRF-CEM leukemia = system: CCRF-CEM leukemia
SNB-75 CNS = system: SNB-75 CNS
SN12C renal = system: SN12C renal
ACHN renal = system: ACHN renal
HT29 colon = system: HT29 colon
SF-539 CNS = system: SF-539 CNS
HOP-92 NSCLC = system: HOP-92 NSCLC
TK-10 renal = system: TK-10 renal
OVCAR-5 ovarian = system: OVCAR-5 ovarian
CAKI-1 renal = system: CAKI-1 renal
LOX IMVI melanoma = system: LOX IMVI melanoma
U251 CNS = system: U251 CNS
OVCAR-8 ovarian = system: OVCAR-8 ovarian
IGROV1 ovarian = system: IGROV1 ovarian
UACC-257 melanoma = system: UACC-257 melanoma
HCC-2998 colon = system: HCC-2998 colon

SMILES | TGI (SR leukemia) [µM] | TGI (HCT-15 colon) [µM] | TGI (HL-60(TB) leukemia) [µM] | TGI (CCRF-CEM leukemia) [µM] | TGI (SNB-75 CNS) [µM] | TGI (SN12C renal) [µM] | TGI (ACHN renal) [µM] | TGI (HT29 colon) [µM] | TGI (SF-539 CNS) [µM] | TGI (HOP-92 NSCLC) [µM] | TGI (TK-10 renal) [µM] | TGI (OVCAR-5 ovarian) [µM] | TGI (CAKI-1 renal) [µM] | TGI (LOX IMVI melanoma) [µM] | TGI (U251 CNS) [µM] | TGI (OVCAR-8 ovarian) [µM] | TGI (IGROV1 ovarian) [µM] | TGI (UACC-257 melanoma) [µM] | TGI (HCC-2998 colon) [µM]
S=C1N=C(Cl)/C(=C\c2ccco2)N1 | > 100 | > 100 | > 100 | > 100 | > 100 | > 100 | > 100 | > 100 | > 100 | > 100 | > 100 | > 100 | > 100 | > 100 | > 100 | > 100 | > 100 | > 100 | –
CCCC(=O)OCC1OC(n2cc(F)c(=O)[nH]c2=O)C(F)C1OC(=O)CCC (stereo not given) | > 100 | > 100 | > 100 | > 100 | > 100 | > 100 | > 100 | > 100 | 27.5 | > 100 | > 100 | > 100 | > 100 | > 100 | > 100 | > 100 | > 100 | > 100 | –
CCOP(=O)(OCC)[C@]12C[C@@H](C)C=C[C@H]1COC2=O | > 100 | – | – | > 100 | > 100 | > 100 | > 100 | – | > 100 | – | > 100 | > 100 | > 100 | > 100 | > 100 | > 100 | – | > 100 | > 100
CCOC(=O)/C(C[C@H]1OC(C)(C)O[C@@H]1[C@H]1COC(C)(C)O1)=N/O | – | > 100 | > 100 | > 100 | – | > 100 | > 100 | > 100 | > 100 | > 100 | > 100 | > 100 | > 100 | > 100 | > 100 | > 100 | > 100 | > 100 | > 100
O=C(Cn1c2ccc(Br)cc2c2nc3ccccc3nc21)N/N=C/c1ccccc1 | > 100 | – | – | – | > 100 | > 100 | > 100 | > 100 | 53.6 | – | > 100 | > 100 | > 100 | – | > 100 | > 100 | > 100 | > 100 | –
Cc1cc(N(CCC#N)CCC#N)ccc1N=Nc1cccc(Cl)c1 | – | – | > 100 | > 100 | – | > 100 | > 100 | > 100 | > 100 | > 100 | > 100 | > 100 | > 100 | – | > 100 | > 100 | – | > 100 | –
COC(=O)c1ccccc1C1CN=NC12Cc1cc(C)c(C)cc1C2=O (stereo not given) | – | > 100 | 46.9 | > 100 | > 100 | > 100 | > 100 | > 100 | > 100 | 78.9 | > 100 | > 100 | > 100 | 92.7 | > 100 | > 100 | > 100 | 44.9 | > 100
COc1ccc(NS(=O)c2ccccc2OC)cc1 (stereo not given) | > 100 | > 100 | > 100 | > 100 | – | > 100 | > 100 | > 100 | 35.9 | – | > 100 | > 100 | 68.6 | > 100 | 67.2 | > 100 | > 100 | > 100 | –
O=C(NCCNCCNC(=O)C(F)(F)F)C(F)(F)F | > 100 | > 100 | > 100 | > 100 | – | > 100 | > 100 | > 100 | – | – | > 100 | > 100 | > 100 | > 100 | > 100 | > 100 | > 100 | > 100 | > 100
O=c1oc2ccccc2c(O)c1C(c1ccc2c(c1)Cc1ccccc1-2)c1c(O)c2ccccc2oc1=O | – | 57.2 | 59.8 | > 100 | > 100 | 41.2 | 45.6 | > 100 | 43.5 | 49.3 | > 100 | 66.1 | 41.5 | 66.7 | 60.3 | > 100 | > 100 | > 100 | 33.6
CC(C)(Oc1ccc2c(=O)cc(-c3ccccc3)oc2c1)C(=O)Nc1c(Cl)cccc1Cl | > 100 | > 100 | > 100 | > 100 | – | – | – | > 100 | > 100 | > 100 | > 100 | > 100 | > 100 | > 100 | > 100 | > 100 | > 100 | > 100 | –
CC(C)c1cccc(C(=O)NCCN(C)C)c1[N+](=O)[O-] | > 100 | > 100 | > 100 | > 100 | > 100 | > 100 | > 100 | > 100 | > 100 | – | > 100 | > 100 | > 100 | – | > 100 | > 100 | > 100 | > 100 | > 100
CC(/C=N\NC(=S)N(C)C)=N/NC(=S)N(C)C | – | > 54.3 | – | – | > 100 | > 100 | – | > 100 | > 100 | 31.2 | > 100 | > 100 | > 56.2 | > 100 | > 100 | > 100 | 16.9 | > 100 | 75.9
CC(=O)N/N=C1/CC[C@@]2(C)C(=CC[C@H]3C4CCC(C(C)CCCC(C)C)[C@@]4(C)CCC32)C1(C)C (stereo not given in full) | > 100 | > 100 | > 100 | > 100 | > 100 | > 100 | > 100 | > 100 | – | > 100 | > 100 | > 100 | > 100 | > 100 | > 100 | > 100 | > 100 | > 100 | –
